Experimental data as given in patent publication US5300629A, “Bactericidal and/or bacteriostatic peptides isolated from hemolymph of honeybees” (Plant Genetic Systems, N.V., priority 1987, dated 1994).
Where a SMILES comes first, the peptide text is derived from it.

Tests used:
Type in all cases: cell-based
[1] = test system: Acinetobacter calcoaceticus MON 108; test: Inhibition zone assay; design: key: --: "-" means that no inhibition has been found
[2] = test system: Rhodococcus terrae ATCC 25594; test: Inhibition zone assay; design: key: --: "-" means that no inhibition has been found; details: I and B 10 ul
[3] = test system: Pseudomonas fluorescens ATCC 13525; test: Inhibition zone assay; design: key: --: "-" means that no inhibition has been found
[4] = test system: Flavobacterium capsulatum ATCC 14666; test: Inhibition zone assay; design: key: --: "-" means that no inhibition has been found
[5] = test system: Serratia marcescens ATCC 17991; test: Inhibition zone assay; design: key: --: "-" means that no inhibition has been found
[6] = test system: Pseudomonas syringae pv. maculicola NCPPB 1776; test: Inhibition zone assay; design: key: --: "-" means that no inhibition has been found; details: * synthetic ApidIa and heattreated immune lymph instead of Bee6 and native immune lymph
[7] = test system: Shigella flexneri NCTC 9950; test: Inhibition zone assay; design: key: --: "-" means that no inhibition has been found; details: I and B 10 ul
Protocol: (§1) Whole lymph or purified components, resuspended in PBS to a final volume equal to the starting material (heated lymph), was applied in 3 mm wells on agar plates seeded with the test organisms. Antibacterial activity was determined by measuring the growth-inhibition zones (in mm).

[8] = test system: Corynebacterium michiganense pv. michiganense NCPPB 1573; test: Inhibition zone assay; design: key: --: "-" means that no inhibition has been found
Protocol: as §1

[9] = test system: Shigella flexneri CP 87; test: Inhibition zone assay; design: key: --: "-" means that no inhibition has been found; details: I 10 ul
Protocol: as §1

[10] = test system: Clostridium difficile Bart 1924; test: Inhibition zone assay; design: key: --: "-" means that no inhibition has been found; details: I 10 ul
Protocol: as §1

[11] = test system: Shigella sonnei CQ26; test: Inhibition zone assay; design: key: --: "-" means that no inhibition has been found; details: I and B 10 ul
Protocol: as §1

[12] = test system: Pseudomonas aureofaciens CCEB 518; test: Inhibition zone assay; design: key: --: "-" means that no inhibition has been found; details: I and B 10 ul, L 5 ug
[13] = test system: Bacillus cereus LMG 2098; test: Inhibition zone assay; design: key: --: "-" means that no inhibition has been found
[14] = test system: Serratia liquefaciens DSM 30125; test: Inhibition zone assay; design: key: --: "-" means that no inhibition has been found; details: I 10 ul, L 5 ug
[15] = test system: Haemophilus influenzae NCTC 8465; test: Inhibition zone assay; design: key: --: "-" means that no inhibition has been found; details: I 10 ul
[16] = test system: Klebsiella aerogenes 1961 E; test: Inhibition zone assay; design: key: --: "-" means that no inhibition has been found; details: I and B 10 ul, L 5 ug
[17] = test system: Arthrobacter sp. NRRL B-3724; test: Inhibition zone assay
[18] = test system: Janthinobacterium lividum Sneath HB; test: Inhibition zone assay; design: key: --: "-" means that no inhibition has been found; details: I and B 10 ul, L 5 ug
[19] = test system: Pseudomonas syringae pv. tabaci NCPPB 1237; test: Inhibition zone assay; design: key: --: "-" means that no inhibition has been found; details: * synthetic ApidIa and heattreated immune lymph instead of Bee6 and native immune lymph
[20] = test system: Salmonella Wien 83/16; test: Inhibition zone assay; design: key: --: "-" means that no inhibition has been found; details: I and B 10 ul
[21] = test system: Pseudomonas syringae pv. tomato NCPPB 1106; test: Inhibition zone assay; design: key: --: "-" means that no inhibition has been found; details: * synthetic ApidIa and heattreated immune lymph instead of Bee6 and native immune lymph
[22] = test system: Neisseria mucosa ATCC 25999; test: Inhibition zone assay; design: key: --: "-" means that no inhibition has been found; details: I 10 ul
[23] = test system: Salmonella Montevideo 80/141; test: Inhibition zone assay; design: key: --: "-" means that no inhibition has been found; details: I and B 10 ul
[24] = test system: Erwinia amylovora NCPPB 638; test: Inhibition zone assay
[25] = test system: Staphylococcus hominis STH B3; test: Inhibition zone assay; design: key: --: "-" means that no inhibition has been found; details: L 5 ug
[26] = test system: Pseudomonas acidovorans CuETM 83-109; test: Inhibition zone assay; design: key: --: "-" means that no inhibition has been found; details: I and B 10 ul, L 5 ug
[27] = test system: Bacillus subtilis NRRL B-237; test: Inhibition zone assay; details: I and B 10 ul, L 5 ug
[28] = test system: Agrobacterium rhizogenes ATCC 11325; test: Inhibition zone assay; design: key: --: "-" means that no inhibition has been found; details: I and B 10 ul, L 5 ug
[29] = test system: Corynebacterium diphteriae HB 11 t1; test: Inhibition zone assay; design: key: --: "-" means that no inhibition has been found; details: I 10 ul
[30] = test system: Proteus mirabilis AU 87; test: Inhibition zone assay; design: key: --: "-" means that no inhibition has been found; details: I and B 10 ul
[31] = test system: Bordetella bronchiseptica ATCC 19395; test: Inhibition zone assay; design: key: --: "-" means that no inhibition has been found; details: I and B 10 ul, L 5 ug
[32] = test system: Enterobacter cloacae BE 97; test: Inhibition zone assay; design: key: --: "-" means that no inhibition has been found; details: I and B 10 ul
[33] = test system: Salmonella Newport CD 94; test: Inhibition zone assay; design: key: --: "-" means that no inhibition has been found; details: I 10 ul
[34] = test system: Salmonella infantis 81/257; test: Inhibition zone assay; design: key: --: "-" means that no inhibition has been found; details: I and B 10 ul
[35] = test system: Azospirillum lipoferum ATCC 29707; test: Inhibition zone assay; design: key: --: "-" means that no inhibition has been found; details: I and B 10 ul, L 5 ug
[36] = test system: Streptococci; test: Growth-inhibition zone assay

Question: Which results are given for `CC[C@H](C)[C@H](NC(=O)[C@H](CCCCN)NC(=O)[C@@H]1CCCN1C(=O)[C@H](CC(N)=O)NC(=O)[C@H](Cc1ccccc1)NC(=O)[C@@H]1CCCN1C(=O)CNC(=O)[C@H](CCC(N)=O)NC(=O)CNC(=O)[C@@H]1CCCN1C(=O)[C@H](Cc1ccccc1)NC(=O)[C@@H](NC(=O)[C@@H]1CCCN1C(=O)[C@H](Cc1ccccc1)NC(=O)[C@@H]1CCCN1C(=O)[C@H](CCCNC(=N)N)NC(=O)[C@H](CCCNC(=N)N)NC(=O)CNC(=O)[C@@H]1CCCN1C(=O)[C@H](CCC(N)=O)NC(=O)[C@@H]1CCCN1C(=O)[C@@H](NC(=O)[C@H](CC(N)=O)NC(=O)[C@@H]1CCCN1C(=O)[C@H](CC(C)C)NC(=O)[C@@H]1CCCN1C(=O)[C@@H](NC(=O)[C@@H](N)Cc1ccc(O)cc1)C(C)C)C(C)C)[C@@H](C)O)C(=O)N[C@@H](CCCCN)C(=O)N[C@@H](Cc1c[nH]c2ccccc12)C(=O)N1CCC[C@H]1C(=O)N[C@@H](CCC(N)=O)C(=O)NCC(=O)N[C@@H](Cc1ccc(O)cc1)C(=O)O` [bee 9] (H-YVPLPNVPQPGRRPFPTFPGQGPFNPKIKWPQGY-OH)?
Answer: diameter of growth-inhibition zone [1]: --; diameter of growth-inhibition zone [2]: --; diameter of growth-inhibition zone [3]: --; diameter of growth-inhibition zone [4]: --; diameter of growth-inhibition zone [5]: --; diameter of growth-inhibition zone [6]: --; diameter of growth-inhibition zone [7]: --; diameter of growth-inhibition zone [8]: --; diameter of growth-inhibition zone [9]: --; diameter of growth-inhibition zone [10]: --; diameter of growth-inhibition zone [11]: --; diameter of growth-inhibition zone [12]: --; diameter of growth-inhibition zone [13]: --; diameter of growth-inhibition zone [14]: --; diameter of growth-inhibition zone [15]: --; diameter of growth-inhibition zone [16]: --; diameter of growth-inhibition zone [17]: 8 mm; diameter of growth-inhibition zone [18]: --; diameter of growth-inhibition zone [19]: --; diameter of growth-inhibition zone [20]: --; diameter of growth-inhibition zone [21]: --; diameter of growth-inhibition zone [22]: --; diameter of growth-inhibition zone [23]: --; diameter of growth-inhibition zone [24]: 5 mm; diameter of growth-inhibition zone [25]: --; diameter of growth-inhibition zone [26]: --; diameter of growth-inhibition zone [27]: 4 mm; diameter of growth-inhibition zone [28]: --; diameter of growth-inhibition zone [29]: --; diameter of growth-inhibition zone [30]: --; diameter of growth-inhibition zone [31]: --; diameter of growth-inhibition zone [32]: --; diameter of growth-inhibition zone [33]: --; diameter of growth-inhibition zone [34]: --; diameter of growth-inhibition zone [35]: --; susceptibility, in words [36]: resistant
